Measurements as given in US9708628B2, “Cationic lipid having improved intracellular kinetics” (NOF CORPORATION, priority 2011, dated 2017).

Tests used:
[1] = Particle size and surface potential of siRNA MENDs prepared by t-BuOH injecting method; assay type: physicochemical; conditions: siRNA MEND, cationic lipid/cholesterol=70/30, DMG-PEG2000 3%
Procedure: (§1) A lipid solution in t-BuOH with a composition of cationic lipid/cholesterol=70/30, DMG-PEG2000 3% and a total lipid amount of 3000 nmol/400 μL (7.5 mM) was prepared in a 1.7 mL tube. In a separate 1.7 mL tube, an siRNA solution was prepared by mixing an siRNA aqueous solution containing siRNA (160 μg) and 20 mM malate buffer (pH 4.00, 30 mM NaCl) to total 50 μL. With vigorous stirring of the lipid solution, the siRNA solution was gradually added dropwise, and the mixed solution was taken in a 1 mL syringe. Then, 20 mM malate buffer (pH 4.00, 30 mM NaCl, 2 mL) was added into a 5 mL tube, and the mixed solution was gradually injected with vigorous stirring. Thereafter, the mixture was further diluted with PBS (7 mL) and centrifuged at 1000 g, 30° C. for 10 min in Amicon Ultra-15-100K to a volume of less than 1.5 mL. PBS (15 mL) was added, and the solution was centrifuged again to about 500-1000 μL. Finally, the MEND solution was adjusted by diluting with PBS to the object lipid concentration.
The particle size and surface potential of various MENDs were measured according to the method described in [Experimental Example 2] and the results are shown in Table 6.

Factor VII (FVII) [2] = assay: Knockdown effect of chemically-modified siRNA-encapsulated MEND; assay type: in vivo, ICR mice
Procedure: A MEND (Lipid/siRNA ratio=250) prepared using the compound of Example 13 and by the method shown in Experimental Example 32, and a MEND having the ratio of lipid and siRNA of Lipid/siRNA ratio=2250 were prepared. Furthermore, of Lipid/siRNA ratio=2250, MENDs wherein siRNA was replaced by chemically-modified one (2′-F) were prepared, and the knockdown effect was evaluated by the method shown in Experimental Example 33.

Factor VII (FVII) [3] = assay: Knockdown effect of siRNA-encapsulated MEND prepared by t-BuOH injecting method; assay type: in vivo, ICR mice; conditions: varying doses of siRNA, tail vein
Procedure: A MEND solution prepared by the method shown in [Experimental Example 28] was administered to 4-week-old male ICR mice at 3 mg siRNA/kg from the tail vein, and blood was collected 24 hr later. This blood sample was centrifuged at 1000 g, 10 min, 4° C., and the supernatant was recovered to obtain plasma. The amount of Factor VII (FVII) in the plasma was quantified by BIOPHEN FVII CHROMOGENIC ASSAY (HYPHEN BioMed).
as §1
MENDs prepared by the method shown in Experimental Example 32 were administered by a method similar to the method shown in Experimental Example 30 with varying doses of siRNA, and the knockdown effect was evaluated. The results are shown in FIG. 35, FIG. 36, and FIG. 37.

- PDI [1]: 0.11
- size (nm) [1]: 123 nm
- zeta (mV) [1]: −6.9 mV
Compound: Cc1c(C)c2c(c(C)c1OC(=O)CCC(=O)OCCCCC1CCN(CCSSCCN3CCC(CCCCOC(=O)CCC(=O)Oc4c(C)c(C)c5c(c4C)CCC(C)(CCCC(C)CCCC(C)CCCC(C)C)O5)CC3)CC1)CCC(C)(CCCC(C)CCCC(C)CCCC(C)C)O2 (stereo not drawn) [TS-P4C4]
- knockdown effect with chemically-modified siRNA (2′-F) (Factor VII (FVII) [2]; Lipid/siRNA ratio=2250): further enhanced the knockdown effect
- knockdown effect, Lipid/siRNA ratio 2250 versus 250 (Factor VII (FVII) [2]; unmodified siRNA): knockdown effect was enhanced
- FVII expression level (knockdown effect) (Factor VII (FVII) [3]): highest knockdown effect
